Measured values published in patent US20210267983A1, “COMBINATIONS OF PPAR AGONISTS AND P38 KINASE INHIBITORS FOR PREVENTING OR TREATING FIBROTIC DISEASES” (KINARUS AG, priority 2018, published 2021).

How the values were obtained:
[1] = cited from earlier work; for reduction of the rate of decline in lung function: patients with IPF; for adverse events / side effects: treatment of IPF
[2] = test system: cytokines and chemokines of the interleukin, TNF, C-C and C-X-C motif families; settings: for adjusted significance (p) value, C-C Motif Chemokine Ligand 2 (Ccl2) / adjusted significance (p) value, C-C Motif Chemokine Ligand 3 (Ccl3) / adjusted significance (p) value, C-C Motif Chemokine Ligand 4 (Ccl4) / adjusted significance (p) value, C-C Motif Chemokine Ligand 7 (Ccl7) / adjusted significance (p) value, C-C Motif Chemokine Ligand 8 (Ccl8) / adjusted significance (p) value, C-C Motif Chemokine Ligand 12 (Ccl12) / adjusted significance (p) value, C-C Motif Chemokine Ligand 24 (Ccl24) / adjusted significance (p) value, C-X-C Motif Chemokine Ligand 3 (Cxcl3) / adjusted significance (p) value, C-X-C Motif Chemokine Ligand 5 (Cxcl5) / adjusted significance (p) value, C-X-C Motif Chemokine Ligand 10 (Cxcl10) / adjusted significance (p) value, Interleukin 6 (IL6) / adjusted significance (p) value, Interleukin 11 (IL11) / adjusted significance (p) value, Interleukin 12B (IL12b) / adjusted significance (p) value, Interleukin 18 Receptor 1 (IL18r1) / adjusted significance (p) value, TNF Receptor Superfamily Member 10b (Tnfrsf10b) / adjusted significance (p) value, TNF Receptor Superfamily Member 11b (Tnfrsf11b) / adjusted significance (p) value, TNF Superfamily Member 9 (Tnfsf9) / adjusted significance (p) value, TNF Superfamily Member 18 (Tnfsf18) / adjusted significance (p) value, Interleukin 36 Gamma (IL1f9) / adjusted significance (p) value, TNF Superfamily Member 15 (Tnfsf15): lung expression vs bleomycin alone group; for adjusted significance (p) value, C-C Motif Chemokine Ligand 2 (Ccl2) / adjusted significance (p) value, C-C Motif Chemokine Ligand 3 (Ccl3) / adjusted significance (p) value, C-C Motif Chemokine Ligand 4 (Ccl4) / adjusted significance (p) value, C-C Motif Chemokine Ligand 7 (Ccl7) / adjusted significance (p) value, C-C Motif Chemokine Ligand 8 (Ccl8) / adjusted significance (p) value, C-C Motif Chemokine Ligand 12 (Ccl12) / adjusted significance (p) value, C-C Motif Chemokine Ligand 24 (Ccl24) / adjusted significance (p) value, C-X-C Motif Chemokine Ligand 3 (Cxcl3) / adjusted significance (p) value, C-X-C Motif Chemokine Ligand 5 (Cxcl5) / adjusted significance (p) value, C-X-C Motif Chemokine Ligand 10 (Cxcl10) / adjusted significance (p) value, Interleukin 6 (IL6) / adjusted significance (p) value, Interleukin 11 (IL11) / adjusted significance (p) value, Interleukin 12B (IL12b) / adjusted significance (p) value, Interleukin 18 Receptor 1 (IL18r1) / adjusted significance (p) value, TNF Receptor Superfamily Member 10b (Tnfrsf10b) / adjusted significance (p) value, TNF Receptor Superfamily Member 11b (Tnfrsf11b) / adjusted significance (p) value, TNF Superfamily Member 9 (Tnfsf9) / adjusted significance (p) value, TNF Superfamily Member 18 (Tnfsf18): Direction: downregulated; for adjusted significance (p) value, Interleukin 36 Gamma (IL1f9) / adjusted significance (p) value, TNF Superfamily Member 15 (Tnfsf15): Direction: upregulated; for regulation of expression of members of the interleukin/interleukin receptor, TNF/TNF receptor, C-C and C-X-C motif chemokine families: lung, vs bleomycin alone disease group, significant = adjusted p value <0.10
Protocol: Global gene expression changes were determined by Illumina Next Generation RNA sequencing in lung samples from the animal study described in Example 1. RNA was extracted from the post caval lobe that had been snap frozen at the termination of the study. For this analysis, 8 samples from each of treatment groups 1-6 (total 48 samples) were analysed. Briefly, total RNA was extracted for next generation sequencing using standard methods, then Illumina TruSeq RNA libraries including poly(A) enrichment were prepared. Sequencing was performed on an Illumina NextSeq 500, v2, high output, 1×75 bp reads with 30 Mio packages. Demultiplexing and trimming of Illumina adaptor residuals was performed on the raw data. Mapping of data reads was made using the reference mouse genome mm10. For bioinformatics analysis, the average expression level and standard deviations were determined for each gene for the 8 replicates per treatment group. Pairwise comparisons between groups were then performed to identify differentially expressed genes. Absolute p-values and adjusted p-values, to correct for multiplicity of testing, were calculated for each pairwise analysis.

[3] = test system: bleomycin-induced pulmonary fibrosis; assay: 21-day model of bleomycin-induced pulmonary fibrosis in mice; format: in vivo; settings: day 21, oral gavage QD, 25 mg/kg pioglitazone, 100 mg/kg pamapimod, alone or in combination, p<0.05, t test; for lung weights normalized to body weights: vs. group 2 (bleomycin + vehicle); for fibrosis, group mean fibrotic index (modified Ashcroft score): vs. group 2 (fibrotic index 4.8)
Protocol: Male C57BL/6 mice, six to seven weeks of age, were used for this study. Animals were weighed one day prior to study initiation and 60 animals were randomized into 6 groups (N=10/group) such that mean body weights were similar for the different groups. Food and water were provided ad libitum, with a 12-hour light/dark cycle.
Treatment in groups 2-6 was initiated one day prior to bleomycin administration and continued though to the study end on day 21. On day -1, animals were dosed via oral gavage with vehicle control (0.5% methylcellulose; group 1 and group 2), pioglitazone at 25 mg/kg/dose (group 3), pamapimod at 100 mg/kg/dose (group 4), pioglitazone at 25 mg/kg/dose and pamapimod at 100 mg/kg/dose (group 5), pirfenidone at 100mg/kg/dose (group 6) and continued for 21 days. Pioglitazone and pamapimod were dosed once daily (QD) and pirfenidone was dosed twice daily (BID). On day 0, all mice in groups 2-6 received a single instillation of bleomycin to induce pulmonary fibrosis. Animals in group 1 (dosed with vehicle from days-1 to 21) were not instilled with bleomycin, but instead received a single dose of saline, and were considered sham negative control mice. Final drug treatments were administered 2-4 hours prior to study termination on day 21.
Body weights, absolute lung weights, and lung weights normalized to body weights were measured for all mice on day 21 after bleomycin instillation, and were compared to bleomycin-instilled vehicle treated control mice. The post-caval lobes from the right lung were collected and snap frozen. The remaining lungs were fixed in 10% NBF and underwent histopathology analysis and evaluated for eseverity of fibrosis using a modified Ashcroft score.
Vehicle (0.5% methylcellulose) and compounds were prepared weekly and stored at room temperature in the dark. All mice were dosed starting on day-1 until study termination on day 21 with a volume of 200 μl of vehicle or test compounds QD by oral gavage or 100 μl of pirfenidone BID by oral gavage. For groups receiving both pirfenidone and test compounds, pirfenidone was dosed 100 μl BID and test compounds were delivered in a total volume of 100 μl QD. […]
The lung samples were processed and embedded with all lobes from each mouse in one paraffin block. […] A modified Ashcroft score (Hubner et al., 2008) was recorded for each field. The fibrotic index was calculated as the sum of the modified Ashcroft field scores divided by the number of fields examined. […]
Endpoint data on day 21 is shown as the average Ashcroft score per experimental group, with standard error of the mean (SEM). Statistical differences (defined as p<0.05) between groups were analyzed using t-tests in Prism version 7.0 software (GraphPad, La Jolla, Calif.). […]

| Compound | reduction of the rate of decline in lung function [1] | adverse events / side effects [1] | adjusted significance (p) value, C-C Motif Chemokine Ligand 2 (Ccl2) [2] | adjusted significance (p) value, C-C Motif Chemokine Ligand 3 (Ccl3) [2] | adjusted significance (p) value, C-C Motif Chemokine Ligand 4 (Ccl4) [2] | adjusted significance (p) value, C-C Motif Chemokine Ligand 7 (Ccl7) [2] | adjusted significance (p) value, C-C Motif Chemokine Ligand 8 (Ccl8) [2] | adjusted significance (p) value, C-C Motif Chemokine Ligand 12 (Ccl12) [2] | adjusted significance (p) value, C-C Motif Chemokine Ligand 24 (Ccl24) [2] | adjusted significance (p) value, C-X-C Motif Chemokine Ligand 3 (Cxcl3) [2] | adjusted significance (p) value, C-X-C Motif Chemokine Ligand 5 (Cxcl5) [2] | adjusted significance (p) value, C-X-C Motif Chemokine Ligand 10 (Cxcl10) [2] | adjusted significance (p) value, Interleukin 6 (IL6) [2] | adjusted significance (p) value, Interleukin 11 (IL11) [2] | adjusted significance (p) value, Interleukin 12B (IL12b) [2] | adjusted significance (p) value, Interleukin 18 Receptor 1 (IL18r1) [2] | adjusted significance (p) value, TNF Receptor Superfamily Member 10b (Tnfrsf10b) [2] | adjusted significance (p) value, TNF Receptor Superfamily Member 11b (Tnfrsf11b) [2] | adjusted significance (p) value, TNF Superfamily Member 9 (Tnfsf9) [2] | adjusted significance (p) value, TNF Superfamily Member 18 (Tnfsf18) [2] | also measured |
| --- | --- | --- | --- | --- | --- | --- | --- | --- | --- | --- | --- | --- | --- | --- | --- | --- | --- | --- | --- | --- | --- |
| COC(=O)c1ccc2c(c1)NC(=O)/C2=C(\Nc1ccc(N(C)C(=O)CN2CCN(C)CC2)cc1)c1ccccc1 [nintedanib, Nintedanib] | approximately 50% | significant systemic adverse events |  |  |  |  |  |  |  |  |  |  |  |  |  |  |  |  |  |  |  |
| CCc1ccc(CCOc2ccc(CC3SC(=O)NC3=O)cc2)nc1 (centres unmarked) [Pioglitazone] |  |  | NS (NS = adjusted p value > 0.10) | NS (NS = adjusted p value > 0.10) | NS (NS = adjusted p value > 0.10) | NS (NS = adjusted p value > 0.10) | NS (NS = adjusted p value > 0.10) | NS (NS = adjusted p value > 0.10) | NS (NS = adjusted p value > 0.10) | NS (NS = adjusted p value > 0.10) | NS (NS = adjusted p value > 0.10) | NS (NS = adjusted p value > 0.10) | NS (NS = adjusted p value > 0.10) | NS (NS = adjusted p value > 0.10) | NS (NS = adjusted p value > 0.10) | NS (NS = adjusted p value > 0.10) | NS (NS = adjusted p value > 0.10) | NS (NS = adjusted p value > 0.10) | NS (NS = adjusted p value > 0.10) | NS (NS = adjusted p value > 0.10) | adjusted significance (p) value, Interleukin 36 Gamma (IL1f9) [2]: NS (NS = adjusted p value > 0.10); adjusted significance (p) value, TNF Superfamily Member 15 (Tnfsf15) [2]: NS (NS = adjusted p value > 0.10); regulation of expression of members of the interleukin/interleukin receptor, TNF/TNF receptor, C-C and C-X-C motif chemokine families [2]: Neither pioglitazone or pamapimod single treatments significantly regulated expression; lung weights normalized to body weights [3]: Substantially lower normalized lung weights; fibrosis, group mean fibrotic index (modified Ashcroft score) [3]: Substantially less fibrosis |
| Cc1ccc(=O)n(-c2ccccc2)c1 [pirfenidone, Pirfenidone] | approximately 50% | significant side effects |  |  |  |  |  |  |  |  |  |  |  |  |  |  |  |  |  |  |  |
| Cn1c(=O)c(Oc2ccc(F)cc2F)cc2cnc(NC(CCO)CCO)nc21 [Pamapimod, 6-(2,4-Difluorophenoxy)-2-[3-hydroxy-1-(2-hydroxyethyl)-propylamino]-8-methyl-8H-pyrido[2,3-d]pyrimidin-7-one] |  |  | NS (NS = adjusted p value > 0.10) | NS (NS = adjusted p value > 0.10) | 0.042 | NS (NS = adjusted p value > 0.10) | NS (NS = adjusted p value > 0.10) | NS (NS = adjusted p value > 0.10) | 0.032 | NS (NS = adjusted p value > 0.10) | NS (NS = adjusted p value > 0.10) | NS (NS = adjusted p value > 0.10) | NS (NS = adjusted p value > 0.10) | NS (NS = adjusted p value > 0.10) | 0.023 | NS (NS = adjusted p value > 0.10) | NS (NS = adjusted p value > 0.10) | NS (NS = adjusted p value > 0.10) | NS (NS = adjusted p value > 0.10) | NS (NS = adjusted p value > 0.10) | adjusted significance (p) value, Interleukin 36 Gamma (IL1f9) [2]: NS (NS = adjusted p value > 0.10); adjusted significance (p) value, TNF Superfamily Member 15 (Tnfsf15) [2]: 0.0079; regulation of expression of members of the interleukin/interleukin receptor, TNF/TNF receptor, C-C and C-X-C motif chemokine families [2]: Neither pioglitazone or pamapimod single treatments significantly regulated expression; lung weights normalized to body weights [3]: Substantially lower normalized lung weights; fibrosis, group mean fibrotic index (modified Ashcroft score) [3]: Substantially less fibrosis |
